From ChEMBL document CHEMBL1201862, “PubChem BioAssay data set” (2004)
Activity calls are given as the source filed them.

Experiments:
Candida albicans [1] = assay: fluconazole resistance reversal in C. albicans, dose response, CaCi-2 strain, Alamar Blue, dry powder, set 4 (AID 488943); type: functional, organism-based
Candida albicans [2] = assay: growth inhibition of resistant C. albicans, dose response, CaCi-8, fluconazole, Alamar Blue, dry powder (AID 488807); type: functional, organism-based
Candida albicans [3] = assay: growth inhibition of resistant C. albicans, dose response, CaCi-8 strain, fluconazole, dry powder, set 4 (AID 488950); type: functional, organism-based
[4] = target: T1, Small ubiquitin-related modifier 1 (Homo sapiens, UniProt P63165); assay: inhibitors of SUMO1 partner interactions, dose response, biochemical, FRET (AID 624383); type: functional; conditions: read-out: IC50_Mean
[5] = target: T2, Apoptotic protease-activating factor 1 (Homo sapiens, UniProt O14727); assay: activation of Apaf-1 mediated apoptosis – fluorescent, uHTS hits, dose response (AID 588554); type: functional
T2 sequence (O14727 whole entry): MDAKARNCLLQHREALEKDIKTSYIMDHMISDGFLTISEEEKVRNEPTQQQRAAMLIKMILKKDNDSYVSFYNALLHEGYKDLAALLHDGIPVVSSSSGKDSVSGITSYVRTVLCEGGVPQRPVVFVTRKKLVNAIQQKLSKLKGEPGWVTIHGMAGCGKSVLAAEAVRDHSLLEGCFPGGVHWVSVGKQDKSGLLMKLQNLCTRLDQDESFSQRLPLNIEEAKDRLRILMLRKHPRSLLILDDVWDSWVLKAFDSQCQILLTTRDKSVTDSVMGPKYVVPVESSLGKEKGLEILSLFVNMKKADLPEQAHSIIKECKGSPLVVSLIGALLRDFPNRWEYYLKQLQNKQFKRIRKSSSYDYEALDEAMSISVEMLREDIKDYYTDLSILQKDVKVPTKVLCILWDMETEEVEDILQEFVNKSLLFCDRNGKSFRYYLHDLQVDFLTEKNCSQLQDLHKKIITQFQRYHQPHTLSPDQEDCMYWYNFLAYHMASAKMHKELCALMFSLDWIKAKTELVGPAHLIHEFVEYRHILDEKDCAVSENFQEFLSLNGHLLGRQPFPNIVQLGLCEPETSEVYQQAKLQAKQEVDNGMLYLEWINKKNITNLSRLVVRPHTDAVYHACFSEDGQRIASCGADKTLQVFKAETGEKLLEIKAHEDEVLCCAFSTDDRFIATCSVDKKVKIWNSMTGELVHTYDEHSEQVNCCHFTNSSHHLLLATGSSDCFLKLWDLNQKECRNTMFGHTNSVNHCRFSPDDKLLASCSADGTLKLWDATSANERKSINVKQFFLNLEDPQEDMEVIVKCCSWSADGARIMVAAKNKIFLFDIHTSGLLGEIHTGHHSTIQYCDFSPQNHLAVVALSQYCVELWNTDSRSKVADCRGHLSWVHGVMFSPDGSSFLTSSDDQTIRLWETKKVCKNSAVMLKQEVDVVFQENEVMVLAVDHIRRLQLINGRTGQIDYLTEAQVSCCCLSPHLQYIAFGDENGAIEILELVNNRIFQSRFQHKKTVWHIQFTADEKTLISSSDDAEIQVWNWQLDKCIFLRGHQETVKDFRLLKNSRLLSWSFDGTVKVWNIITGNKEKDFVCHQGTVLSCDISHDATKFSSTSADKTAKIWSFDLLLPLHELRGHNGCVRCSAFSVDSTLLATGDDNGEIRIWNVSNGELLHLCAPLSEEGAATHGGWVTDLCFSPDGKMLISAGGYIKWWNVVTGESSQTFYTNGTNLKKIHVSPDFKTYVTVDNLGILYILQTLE

[6] = target: T1, Small ubiquitin-related modifier 1; assay: inhibitors of SUMO1 peptide binding, dose response, biochemical, fluorescence polarization, uHTS hits (AID 624382); type: functional; conditions: read-out: IC50_Mean
[7] = target: T3, Carboxy-terminal domain RNA polymerase II polypeptide A small phosphatase 1 (Homo sapiens, UniProt Q9GZU7); assay: inhibitors of CTDSP1, concentration-response testing, biochemical assay, absorbance-based, actives from ultra-high-throughput screening (AID 540297); type: functional
T3 sequence (Q9GZU7 whole entry): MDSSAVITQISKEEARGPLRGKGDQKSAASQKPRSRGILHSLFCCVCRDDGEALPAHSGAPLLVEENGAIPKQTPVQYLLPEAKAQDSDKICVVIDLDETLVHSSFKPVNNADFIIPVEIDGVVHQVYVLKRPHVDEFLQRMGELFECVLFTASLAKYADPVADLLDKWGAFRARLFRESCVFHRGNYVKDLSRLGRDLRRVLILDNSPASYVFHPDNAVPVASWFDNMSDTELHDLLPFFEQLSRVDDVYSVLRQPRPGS

[8] = target: DNA (cytosine-5)-methyltransferase 1 (Homo sapiens, UniProt P26358); assay: DNMT1 methyltransferase inhibitors, confirmation, biochemical, fluorescent molecular beacon (AID 602386); type: functional
[9] = target: Induced myeloid leukemia cell differentiation protein Mcl-1 (Homo sapiens, UniProt Q07820); type: functional
[10] = target: DNA dC->dU-editing enzyme APOBEC-3G (Homo sapiens, UniProt Q9HC16); assay: Dose Response confirmation of small molecule APOBEC3G DNA Deaminase Inhibitors via a fluorescence-based single-stranded DNA deaminase assay. [Related pubchem assays (depositor defined):AID493012, AID493028]; type: functional
[11] = target: DNA dC->dU-editing enzyme APOBEC-3A (Homo sapiens, UniProt P31941); assay: APOBEC3A DNA deaminase inhibitors, dose response, biochemical (AID 504722); type: functional
[12] = target: Nuclear receptor subfamily 5 group A member 2 (Homo sapiens, UniProt O00482); type: functional, cell-based;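 further: HEK293T cells transfected with LRH-1 and a StAR promoter luciferase reporter; potency for inhibitors that lower LRH-1 driven reporter light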
[13] = target: T4, Heat shock factor protein 1 (Mus musculus, UniProt P38532); assay: HSF1 potentiators in luciferase reporter cells, confirmation, cell-based, NIH3T3, luminescence, dose retest (AID 435004); type: functional;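 further: stress induced by proteasome inhibitor MG132 added 30 min after compound; luciferase reporter driven by HSF1 response element in NIH3T3 cells; actives raise luminescence as potentiators of the MG132 stress response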
T4 sequence (P38532 whole entry): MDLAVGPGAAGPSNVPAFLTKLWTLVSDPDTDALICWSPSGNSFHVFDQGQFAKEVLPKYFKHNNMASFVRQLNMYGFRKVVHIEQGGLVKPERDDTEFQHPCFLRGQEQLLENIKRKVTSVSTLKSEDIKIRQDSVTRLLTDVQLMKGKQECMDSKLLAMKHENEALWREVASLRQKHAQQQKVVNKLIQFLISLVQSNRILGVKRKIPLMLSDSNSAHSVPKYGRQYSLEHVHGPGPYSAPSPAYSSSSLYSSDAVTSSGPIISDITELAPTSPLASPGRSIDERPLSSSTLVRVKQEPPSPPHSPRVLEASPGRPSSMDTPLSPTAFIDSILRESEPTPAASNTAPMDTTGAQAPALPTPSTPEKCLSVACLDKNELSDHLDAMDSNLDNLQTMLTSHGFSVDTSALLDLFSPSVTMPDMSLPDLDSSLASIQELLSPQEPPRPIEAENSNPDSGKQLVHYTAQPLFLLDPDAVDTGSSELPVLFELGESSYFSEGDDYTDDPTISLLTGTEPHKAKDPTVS

Vero [14] = assay: cells; type: functional; conditions: Chlorocebus sabaeus
Steroidogenic factor 1 = Steroidogenic factor 1 (Homo sapiens, UniProt Q13285); assay: Counterscreen for inverse agonists of the liver receptor homolog-1 (LRH-1; NR5A2): Luminescence-based cell-based high throughput dose response assay to identify inverse agonists of the Steroidogenic Factor 1 Nuclear Receptor (SF1; NR5A1).; type: functional
[15] = StAR promoter reporter inhibition counter-screen, dose response, counter-screen for LRH-1 inverse agonist project, cell-based, luminescence, luciferase reporter (AID 651969); type: functional
Vero [16] = assay: cells; type: functional, cell-based; conditions: Chlorocebus sabaeus
[17] = target: Dual specificity tyrosine-phosphorylation-regulated kinase 1A (Rattus norvegicus, UniProt Q63470); type: biochemical, Homo sapiens
[18] = target: Dual specificity protein kinase CLK1 (Homo sapiens, UniProt P49759); assay: CLK1 kinase inhibitors, off-target check, dose response, selectivity assay for Dyrk1A inhibitor project, biochemical, cherry-picked samples (AID 588811)
[19] = target: Dual specificity protein phosphatase 3 (Homo sapiens, UniProt P51452); assay: SAR VHR1 Fluorescent Assay for In Vitro dose response studies Set 3. [Related pubchem assays (depositor defined):AID1654, AID1661, AID1878]; type: functional
Dual specificity protein phosphatase 3, sequence (P51452 whole entry): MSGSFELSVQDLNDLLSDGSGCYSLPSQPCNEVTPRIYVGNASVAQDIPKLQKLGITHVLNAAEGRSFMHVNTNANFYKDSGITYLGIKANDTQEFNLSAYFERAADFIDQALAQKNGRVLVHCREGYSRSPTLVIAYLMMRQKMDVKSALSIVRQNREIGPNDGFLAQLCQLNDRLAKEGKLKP

T1 sequence (P63165 whole entry): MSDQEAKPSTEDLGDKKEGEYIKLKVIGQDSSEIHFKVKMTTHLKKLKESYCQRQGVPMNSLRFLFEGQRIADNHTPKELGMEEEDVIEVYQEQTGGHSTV
Dual specificity protein kinase CLK1, sequence (P49759 whole entry): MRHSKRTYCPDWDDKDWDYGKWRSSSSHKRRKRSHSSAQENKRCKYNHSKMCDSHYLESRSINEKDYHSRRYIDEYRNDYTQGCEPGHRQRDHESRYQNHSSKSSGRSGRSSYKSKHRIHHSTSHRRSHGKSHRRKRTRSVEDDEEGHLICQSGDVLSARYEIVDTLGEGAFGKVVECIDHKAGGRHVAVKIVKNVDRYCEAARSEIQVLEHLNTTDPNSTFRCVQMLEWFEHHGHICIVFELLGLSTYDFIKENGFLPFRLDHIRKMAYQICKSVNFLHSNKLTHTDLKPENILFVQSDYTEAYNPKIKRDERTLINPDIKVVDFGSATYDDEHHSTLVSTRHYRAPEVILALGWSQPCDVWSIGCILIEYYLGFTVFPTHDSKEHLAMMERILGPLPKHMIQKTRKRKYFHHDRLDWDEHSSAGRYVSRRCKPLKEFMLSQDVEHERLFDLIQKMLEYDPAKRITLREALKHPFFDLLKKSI
Induced myeloid leukemia cell differentiation protein Mcl-1, sequence (Q07820 whole entry): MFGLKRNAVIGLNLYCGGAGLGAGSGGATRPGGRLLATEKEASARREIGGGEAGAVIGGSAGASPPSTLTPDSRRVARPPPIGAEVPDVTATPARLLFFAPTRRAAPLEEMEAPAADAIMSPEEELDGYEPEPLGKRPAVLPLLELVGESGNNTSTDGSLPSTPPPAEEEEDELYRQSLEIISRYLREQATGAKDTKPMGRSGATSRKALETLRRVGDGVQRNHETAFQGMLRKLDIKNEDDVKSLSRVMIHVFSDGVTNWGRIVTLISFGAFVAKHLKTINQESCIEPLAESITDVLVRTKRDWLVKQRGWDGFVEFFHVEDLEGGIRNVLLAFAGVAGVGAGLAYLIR
DNA dC->dU-editing enzyme APOBEC-3G, sequence (Q9HC16 whole entry): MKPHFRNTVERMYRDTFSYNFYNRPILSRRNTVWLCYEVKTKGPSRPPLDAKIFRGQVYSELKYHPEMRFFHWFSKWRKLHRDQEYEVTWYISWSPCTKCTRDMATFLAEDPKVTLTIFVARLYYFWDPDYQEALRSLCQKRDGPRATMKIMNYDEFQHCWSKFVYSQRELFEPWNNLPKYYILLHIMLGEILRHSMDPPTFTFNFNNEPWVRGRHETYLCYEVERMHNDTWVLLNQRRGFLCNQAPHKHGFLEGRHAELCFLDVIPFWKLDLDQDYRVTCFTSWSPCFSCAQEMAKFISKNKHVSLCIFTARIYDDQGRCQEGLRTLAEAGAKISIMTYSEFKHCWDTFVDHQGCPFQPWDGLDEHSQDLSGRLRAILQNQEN
Steroidogenic factor 1, sequence (Q13285 whole entry): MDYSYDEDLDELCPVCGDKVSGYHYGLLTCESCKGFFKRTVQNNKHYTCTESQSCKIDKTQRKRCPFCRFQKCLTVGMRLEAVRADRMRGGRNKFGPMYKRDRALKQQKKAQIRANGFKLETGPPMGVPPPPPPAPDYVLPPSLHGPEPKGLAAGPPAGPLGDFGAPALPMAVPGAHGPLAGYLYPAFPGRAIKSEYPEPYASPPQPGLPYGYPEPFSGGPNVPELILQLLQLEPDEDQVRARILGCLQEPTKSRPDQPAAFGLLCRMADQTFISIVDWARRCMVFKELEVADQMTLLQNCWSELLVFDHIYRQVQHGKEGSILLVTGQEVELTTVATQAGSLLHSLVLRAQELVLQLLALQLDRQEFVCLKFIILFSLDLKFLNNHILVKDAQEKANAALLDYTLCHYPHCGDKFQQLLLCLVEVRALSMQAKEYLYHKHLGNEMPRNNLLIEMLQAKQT
Nuclear receptor subfamily 5 group A member 2, sequence (O00482 whole entry): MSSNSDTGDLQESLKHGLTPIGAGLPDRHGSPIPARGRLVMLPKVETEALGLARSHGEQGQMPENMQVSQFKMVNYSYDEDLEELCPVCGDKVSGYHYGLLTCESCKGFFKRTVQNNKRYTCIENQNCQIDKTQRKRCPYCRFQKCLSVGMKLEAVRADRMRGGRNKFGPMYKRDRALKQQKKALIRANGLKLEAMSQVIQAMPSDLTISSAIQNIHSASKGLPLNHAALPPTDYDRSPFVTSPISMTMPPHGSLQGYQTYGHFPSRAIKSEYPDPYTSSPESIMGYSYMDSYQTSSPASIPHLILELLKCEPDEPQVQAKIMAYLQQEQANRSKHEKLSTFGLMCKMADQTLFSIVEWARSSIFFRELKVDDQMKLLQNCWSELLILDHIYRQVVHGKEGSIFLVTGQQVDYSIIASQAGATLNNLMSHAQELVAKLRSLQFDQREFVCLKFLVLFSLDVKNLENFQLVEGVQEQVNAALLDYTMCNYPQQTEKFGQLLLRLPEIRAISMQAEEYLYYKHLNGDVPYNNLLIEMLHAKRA
DNA (cytosine-5)-methyltransferase 1, sequence (P26358 whole entry): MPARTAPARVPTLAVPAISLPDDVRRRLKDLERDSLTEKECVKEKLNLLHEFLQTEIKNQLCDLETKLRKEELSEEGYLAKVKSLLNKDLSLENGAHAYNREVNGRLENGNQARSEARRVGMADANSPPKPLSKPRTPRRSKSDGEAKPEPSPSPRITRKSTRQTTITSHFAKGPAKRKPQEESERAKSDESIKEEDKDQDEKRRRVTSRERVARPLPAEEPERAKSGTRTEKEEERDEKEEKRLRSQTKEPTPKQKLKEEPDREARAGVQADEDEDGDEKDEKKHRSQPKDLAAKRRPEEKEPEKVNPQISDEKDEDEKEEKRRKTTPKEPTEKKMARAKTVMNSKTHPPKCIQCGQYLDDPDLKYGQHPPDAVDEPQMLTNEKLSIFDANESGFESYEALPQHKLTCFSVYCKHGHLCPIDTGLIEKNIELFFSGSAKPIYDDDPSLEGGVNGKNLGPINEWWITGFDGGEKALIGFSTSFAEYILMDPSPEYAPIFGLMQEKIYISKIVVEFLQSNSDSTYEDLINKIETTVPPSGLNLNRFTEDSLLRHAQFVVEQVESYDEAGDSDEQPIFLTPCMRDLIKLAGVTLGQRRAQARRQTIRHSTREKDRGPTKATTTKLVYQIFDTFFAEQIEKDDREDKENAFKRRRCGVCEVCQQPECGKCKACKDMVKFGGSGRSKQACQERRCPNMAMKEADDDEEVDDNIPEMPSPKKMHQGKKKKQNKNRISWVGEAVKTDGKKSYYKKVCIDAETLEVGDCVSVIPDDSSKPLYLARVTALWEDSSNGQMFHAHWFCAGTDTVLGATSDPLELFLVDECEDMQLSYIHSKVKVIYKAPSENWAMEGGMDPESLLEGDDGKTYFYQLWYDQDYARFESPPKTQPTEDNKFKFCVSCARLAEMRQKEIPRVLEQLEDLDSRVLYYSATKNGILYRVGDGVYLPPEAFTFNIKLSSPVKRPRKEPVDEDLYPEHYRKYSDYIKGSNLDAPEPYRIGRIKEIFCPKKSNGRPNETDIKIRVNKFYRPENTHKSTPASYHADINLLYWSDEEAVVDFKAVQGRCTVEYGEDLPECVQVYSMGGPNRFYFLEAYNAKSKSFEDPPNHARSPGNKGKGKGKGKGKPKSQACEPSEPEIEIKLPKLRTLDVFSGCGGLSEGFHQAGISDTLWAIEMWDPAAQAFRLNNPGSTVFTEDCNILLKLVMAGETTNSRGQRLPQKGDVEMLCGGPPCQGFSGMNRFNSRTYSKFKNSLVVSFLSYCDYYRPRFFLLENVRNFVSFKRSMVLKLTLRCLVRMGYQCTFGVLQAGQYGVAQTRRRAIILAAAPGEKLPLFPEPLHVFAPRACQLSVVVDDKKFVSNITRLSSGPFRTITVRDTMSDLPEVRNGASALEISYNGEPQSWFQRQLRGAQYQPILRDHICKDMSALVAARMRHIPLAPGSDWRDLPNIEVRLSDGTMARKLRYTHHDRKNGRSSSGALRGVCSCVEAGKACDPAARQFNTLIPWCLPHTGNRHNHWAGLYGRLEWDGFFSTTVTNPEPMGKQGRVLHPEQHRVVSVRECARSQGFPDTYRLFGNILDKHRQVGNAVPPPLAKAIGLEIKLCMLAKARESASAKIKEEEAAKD
DNA dC->dU-editing enzyme APOBEC-3A, sequence (P31941 whole entry): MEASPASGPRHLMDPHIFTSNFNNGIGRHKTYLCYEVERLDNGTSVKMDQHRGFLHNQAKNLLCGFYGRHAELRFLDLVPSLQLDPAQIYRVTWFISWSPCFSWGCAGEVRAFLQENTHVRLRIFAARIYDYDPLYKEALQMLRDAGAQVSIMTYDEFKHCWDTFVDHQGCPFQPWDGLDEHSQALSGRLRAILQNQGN

O=C(c1ccccc1)N1CCN(c2ccnc3cc(Cl)ccc23)CC1
AC50 (Candida albicans [1]): 1.69 µM (active)
AC50 (Candida albicans [2]): 5.68 µM (active)
AC50 (Candida albicans [3]): 2.05 µM (active)

C=C(C)C(=O)Nc1cccc(C2=NOC3(C2)C[C@@H](C(N)=O)N(C(=O)C(=C)C)C3)c1 (stereo not given in full)
IC50 [4]: 2.56 µM (active)
EC50 [5]: 1.24 µM (active)
IC50 [6]: > 66.6 µM (inactive)
IC50 [7]: 1.89 µM (active)
IC50 [8]: 4.95 µM (active)
IC50 [9]: 3.08 µM (not active)
IC50 [10]: 5.94 µM (active)
IC50 [11]: > 100 µM (inactive)

O=C(Nc1ccc(Br)cn1)c1ccc([N+](=O)[O-])o1
IC50 [12]: 35.9 µM (inactive)
EC50 [13]: 16.7 µM (active)
CC50 (Vero [14]): 13.8 µM (active)
IC50 (Steroidogenic factor 1): 35.9 µM (inactive)
IC50 [15]: 35.9 µM (inactive)
IC50 (Vero [16]): > 25 µM (active)

CC(=O)Nc1ccc(Nc2cc(C)nc3c(-c4ccccc4)cnn23)cc1
AC50 [17]: 5.54 µM (active)
AC50 [18]: 15.3 µM (active)

COc1ccc(C(=O)Nc2nc3c(OC)cccc3s2)cc1
IC50 [19]: 41.9 µM (active)
